{"source": "patent US10829501B2", "about": "(BRISTOL-MYERS SQUIBB COMPANY, priority 2016, dated 2020)", "molecular_target": "ROCK2 (Homo sapiens, UniProt O75116)", "sequence (O75116 whole entry, species assumed)": "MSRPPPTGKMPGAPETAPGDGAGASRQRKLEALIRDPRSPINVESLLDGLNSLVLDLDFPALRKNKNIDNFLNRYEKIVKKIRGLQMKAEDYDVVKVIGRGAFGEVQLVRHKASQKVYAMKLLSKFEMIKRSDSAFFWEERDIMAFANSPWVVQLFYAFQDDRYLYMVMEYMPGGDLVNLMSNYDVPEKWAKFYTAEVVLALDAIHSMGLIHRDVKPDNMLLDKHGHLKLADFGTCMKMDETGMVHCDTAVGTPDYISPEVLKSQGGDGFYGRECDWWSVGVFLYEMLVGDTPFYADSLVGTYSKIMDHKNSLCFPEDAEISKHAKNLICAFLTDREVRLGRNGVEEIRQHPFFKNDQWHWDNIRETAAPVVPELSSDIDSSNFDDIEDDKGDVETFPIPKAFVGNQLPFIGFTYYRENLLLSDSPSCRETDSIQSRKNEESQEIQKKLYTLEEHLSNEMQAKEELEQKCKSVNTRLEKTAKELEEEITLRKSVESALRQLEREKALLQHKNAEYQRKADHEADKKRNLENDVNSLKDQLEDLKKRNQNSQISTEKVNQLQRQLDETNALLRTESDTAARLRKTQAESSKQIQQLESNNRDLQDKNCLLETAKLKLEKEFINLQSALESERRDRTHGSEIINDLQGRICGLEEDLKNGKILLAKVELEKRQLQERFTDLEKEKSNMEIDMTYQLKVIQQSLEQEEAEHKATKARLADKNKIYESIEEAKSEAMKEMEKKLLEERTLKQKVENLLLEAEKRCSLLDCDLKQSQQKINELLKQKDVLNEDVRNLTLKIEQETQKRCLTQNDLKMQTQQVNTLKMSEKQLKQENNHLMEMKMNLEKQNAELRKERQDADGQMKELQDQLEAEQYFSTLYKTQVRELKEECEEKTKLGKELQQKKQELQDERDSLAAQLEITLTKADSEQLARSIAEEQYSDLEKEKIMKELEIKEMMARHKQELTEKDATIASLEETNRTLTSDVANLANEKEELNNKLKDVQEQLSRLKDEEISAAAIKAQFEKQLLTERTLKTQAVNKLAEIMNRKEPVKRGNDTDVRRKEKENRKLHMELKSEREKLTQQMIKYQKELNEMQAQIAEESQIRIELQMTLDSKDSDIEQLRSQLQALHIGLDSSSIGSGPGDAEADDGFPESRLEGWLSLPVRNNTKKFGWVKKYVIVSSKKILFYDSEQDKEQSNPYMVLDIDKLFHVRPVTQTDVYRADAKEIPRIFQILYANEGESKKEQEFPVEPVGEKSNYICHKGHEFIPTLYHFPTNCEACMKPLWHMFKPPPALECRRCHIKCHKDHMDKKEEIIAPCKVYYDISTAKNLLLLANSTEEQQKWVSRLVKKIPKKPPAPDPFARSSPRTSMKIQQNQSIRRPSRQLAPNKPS", "experiment": "ROCK2 kinase inhibition assay (LABCHIP 3000 Reader, FITC peptide substrate);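 also: rho kinase reaction read by separating phosphorylated from unphosphorylated peptide on chip, with inhibition of kinase activity computed per concentration across a dose-response series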", "key": {"[1]": {"conditions": "read-out: ROCK2 Activity (ROCK2 IC50), 5 μM ATP, 1.5 μM peptide substrate, pH 7.5"}}, "note": "Counter-ions that a name gives are not always drawn. Like-named read-outs stand apart in the source and are kept apart here.", "data": [{"compound": "N#Cc1ccc2nc(C(=O)N[C@H]3CC4(C3)C[C@H](Oc3ncccc3C(N)=O)C4)cn2c1", "note": "(stereo partly drawn) [Example 76, N-((aR)-6-((3-carbamoylpyridin-2-yl)oxy)spiro-[3.3]heptan-2-yl)-6-cyanoimidazo-[1,2-a]pyridine-2-carboxamide, trifluoroacetate]", "values": [{"measurement": "IC50", "result": "250 to 2500", "unit": "nM"}]}, {"compound": "Cn1nc(C(C)(C)C)cc1C(=O)N[C@H]1CC2(C1)C[C@H](Oc1ncccc1C(N)=O)C2", "note": "(stereo partly drawn) [Example 77, 2-((aR)-6-(3-(tert-butyl)-1-methyl-1H-pyraole-5-carboxamido)spiro[3.3]heptan-2-yl)oxy) nicotinamide, trifluoroacetate]", "values": [{"measurement": "IC50", "result": "5 to 50", "unit": "nM"}]}, {"compound": "COCCOCCn1nc(C(=O)N[C@H]2CC3(C2)C[C@H](Oc2ncccc2C(N)=O)C3)c2ccccc21", "note": "(stereo partly drawn) [Example 78, N-((aR)-6-((3-carbamoylpyridin-2-yl)oxy)spiro[3.3]heptan-2-yl)-1-(2-(2-methoxy-ethoxy)ethyl)-1H-indazole-3-carboxamide, trifluoroacetate]", "values": [{"measurement": "IC50", "result": "50 to 250", "unit": "nM"}]}, {"compound": "COc1cc(C(=O)N[C@H]2CC3(C2)C[C@H](Oc2ncccc2C(N)=O)C3)ccc1-n1cnc(C)c1", "note": "(stereo partly drawn) [Example 79, 2-((aR)-6-(3-methoxy-4-(4-methyl-1H-imidazol-1-yl)benzamido)spiro-[3.3]heptan-2-yl)oxy) nicotinamide, trifluoroacetate]", "values": [{"measurement": "IC50", "result": "50 to 250", "unit": "nM"}]}, {"compound": "CN(C)CCOc1ccc2c(C(=O)N[C@H]3CC4(C3)C[C@H](Oc3ncccc3C(N)=O)C4)cnn2c1", "note": "(stereo partly drawn) [Example 80, N-((aR)-6-((3-carbamoylpyridin-2-yl)oxy)spiro[3.3]heptan-2-yl)-6-(2-(dimethylamino)ethoxy) pyrazolo[1,5-a] pyridine-3-carboxamdie, trifluoroacetate]", "values": [{"measurement": "IC50", "result": "5 to 50", "unit": "nM"}]}, {"compound": "CC(C)(O)Cn1nc(C(=O)N[C@H]2CC3(C2)C[C@H](Oc2ncccc2C(N)=O)C3)c2ccc(Br)cc21", "note": "(stereo partly drawn) [Example 81, 6-bromo-N-((aR)-6-((3-carbamoylpyridin-2-yl)oxy)spiro[3.3]heptan-2-yl)-1-(2-hydroxy-2-methylpropyl)-1H-indazole-3-carboxamdie, trifluoroacetate]", "values": [{"measurement": "IC50", "result": "5 to 50", "unit": "nM"}]}, {"compound": "NC(=O)c1cccnc1O[C@H]1CC2(C[C@H](NC(=O)c3cnn4cc(OCCC(F)(F)F)ccc34)C2)C1", "note": "(stereo partly drawn) [Example 82, N-((aR)-6-((3-carbamoylpyridin-2-yl)oxy)spiro[3.3]heptan-2-yl)-6-(3,3,3-trifluoropropoxy) pyrazolo[1,5-a]pyridine-3-carboxamide, trifluoroacetate]", "values": [{"measurement": "IC50", "result": "< 5", "unit": "nM"}]}, {"compound": "Cc1cc(C(=O)N[C@H]2CC3(C2)C[C@H](Oc2ncccc2C(N)=O)C3)n(C)n1", "note": "(stereo partly drawn) [Example 83, 2-((aR)-6-(1,3-dimethyl-1H-pyrazole-5-carboxamido)spiro[3.3]heptan-2-yl)oxy)nicotinamide, trifluoroacetate]", "values": [{"measurement": "IC50", "result": "250 to 2500", "unit": "nM"}]}, {"compound": "Cn1nc(C(=O)N[C@H]2CC3(C2)C[C@H](Oc2ncccc2C(N)=O)C3)cc1OCC1CC1", "note": "(stereo partly drawn) [Example 84, 2-((aR)-6-(5-(cyclopropyl-methoxy)-1-methyl-1H-pyrazole-3-carboxamido)spiro-[3.3]heptan-2-yl)oxy) nicotinamide, trifluoroacetate]", "values": [{"measurement": "IC50", "result": "50 to 250", "unit": "nM"}]}, {"compound": "Cn1nc(C2CC2)cc1C(=O)N[C@H]1CC2(C1)C[C@H](Oc1ncccc1C(N)=O)C2", "note": "(stereo partly drawn) [Example 85, 2-((aR)-6-(3-cyclopropyl-1-methyl-1H-pyrazole-5-carboxamido)spiro[3.3]heptan-2-yl)oxy) nicotinamide, trifluoroacetate]", "values": [{"measurement": "IC50", "result": "50 to 250", "unit": "nM"}]}, {"compound": "Cn1nc(C(=O)N[C@H]2CC3(C2)C[C@H](Oc2ncccc2C(N)=O)C3)cc1OCC(F)(F)C(F)F", "note": "(stereo partly drawn) [Example 87, 2-((aR)-6-(1-methyl-5-(2,2,3,3-tetrafluoropropoxy)-1H-pyrazole-3-carboxamido)spiro[3.3]heptan-2-yl)oxy) nicotinamide, trifluoroacetate]", "values": [{"measurement": "IC50", "result": "50 to 250", "unit": "nM"}]}, {"compound": "Cc1nc(-c2ccccn2)sc1C(=O)N[C@H]1CC2(C1)C[C@H](Oc1ncccc1C(N)=O)C2", "note": "(stereo partly drawn) [Example 88, N-((aR)-6-((3-carbamoyl-pyridin-2-yl)oxy)spiro[3.3]heptan-2-yl)-4-methyl-2-(pyridin-2-yl)thiazole-5-carboxamide, trifluoroacetate]", "values": [{"measurement": "IC50", "result": "250 to 2500", "unit": "nM"}]}, {"compound": "Cn1nc(-c2ccccc2)cc1C(=O)N[C@H]1CC2(C1)C[C@H](Oc1ncccc1C(N)=O)C2", "note": "(stereo partly drawn) [Example 89, 2-((aR)-6-(1-methyl-3-phenyl-1H-pyrazole-5-carboxamido)spiro[3.3]heptan-2-yl)oxy) nicotinamide, trifluoroacetate]", "values": [{"measurement": "IC50", "result": "250 to 2500", "unit": "nM"}]}, {"compound": "Cn1nc(C(=O)N[C@H]2CC3(C2)C[C@H](Oc2ncccc2C(N)=O)C3)cc1OCCC(F)(F)F", "note": "(stereo partly shown) [Example 91, 2-((aR 6-(1-methyl-5-(3,3,3-trifluoropropoxy)-1H-pyrazole-3-carboxamido)spiro[3.3]heptan-2-yl)oxy) nicotinamide, trifluoroacetate]", "values": [{"measurement": "IC50", "result": "50 to 250", "unit": "nM"}]}, {"compound": "Cc1nc(N2CCC(F)(F)C2)sc1C(=O)N[C@H]1CC2(C1)C[C@H](Oc1ncccc1C(N)=O)C2", "note": "(stereo partly drawn) [Example 92, N-((aR)-6-((3-carbamoylpyridin-2-yl)oxy)spiro[3.3]heptan-2-yl)-2-(3,3-difluoropyrrolidin-1-yl)-4-methylthiazole-5-carboxamide, trifluoroacetate]", "values": [{"measurement": "IC50", "result": "50 to 250", "unit": "nM"}]}, {"compound": "CC(C)(O)Cn1nc(C(=O)N[C@H]2CC3(C2)C[C@H](Oc2ncccc2C(N)=O)C3)c2cc(Br)ccc21", "note": "(stereo partly drawn) [Example 93, 5-bromo-N-((aR)-6-((3-carbamoyl-pyridin-2-yl)oxy)spiro[3.3]heptan-2-yl)-1-(2-hydroxy-2-methylpropyl)-1H-indazole-3-carboxamide, trifluoroacetate]", "values": [{"measurement": "IC50", "result": "5 to 50", "unit": "nM"}]}, {"compound": "Cn1nc(C(=O)N[C@H]2CC3(C2)C[C@H](Oc2ncccc2C(N)=O)C3)cc1OCC(F)F", "note": "(stereo partly drawn) [Example 95, 2-((aR)-6-(5-(2,2-difluoroethoxy)-1-methyl-1H-pyrazole-3-carboxamido)spiro-[3.3]heptan-2-yl)oxy) nicotinamide, trifluoroacetate]", "values": [{"measurement": "IC50", "result": "50 to 250", "unit": "nM"}]}, {"compound": "Cc1nc(-c2ccccc2)sc1C(=O)N[C@H]1CC2(C1)C[C@H](Oc1ncccc1C(N)=O)C2", "note": "(stereo partly drawn) [Example 96, N-((aR)-6-((3-carbamoylpyridin-2-yl)oxy)spiro[3.3]heptan-2-yl)-4-methyl-2-phenylthiazole-5-carboxamide, trifluoroacetate]", "values": [{"measurement": "IC50", "result": "50 to 250", "unit": "nM"}]}, {"compound": "CC(C)(O)Cn1nc(C(=O)NC2CC3(C2)CC(Oc2ncccc2C(N)=O)C3)c2ccc(F)cc21", "note": "[Example 97, N-((aR)-6-((3-carbamoylpyridin-2-yl)oxy)spiro[3.3]heptan-2-yl)-6-fluoro-1-(2-hydroxy-2-methylpropyl)-1H-indazole-3-carboxamide, trifluoroacetate]", "values": [{"measurement": "IC50", "setting": "[1]", "result": "5 to 50", "unit": "nM"}]}, {"compound": "CC(C)(O)Cn1nc(C(=O)N[C@H]2CC3(C2)C[C@H](Oc2ncccc2C(N)=O)C3)c2ccc(OC(F)(F)F)cc21", "note": "(stereo partly drawn) [Example 98, N-((aR)-6-((3-carbamoylpyridin-2-yl)oxy)spiro[3.3]heptan-2-yl)-1-(2-hydroxy-2-methylpropyl)-6-(trifluoromethoxy)-1H-indazole-3-carboxamide, trifluoroacetate]", "values": [{"measurement": "IC50", "result": "5 to 50", "unit": "nM"}]}, {"compound": "COc1ccc2c(C(=O)N[C@H]3CC4(C3)C[C@H](Oc3ncccc3C(N)=O)C4)cnn2c1CCC(F)(F)F", "note": "(stereo partly drawn) [Example 99, N-((aR)-6-((3-carbamoylpyridin-2-yl)oxy)spiro[3.3]heptan-2-yl)-6-methoxy-7-(3,3,3-trifluoropropyl) pyrazolo[1,5-a]pyridine-3-carboxamide, trifluoroacetate]", "values": [{"measurement": "IC50", "result": "5 to 50", "unit": "nM"}]}, {"compound": "Cn1cc(-c2c(OCC(C)(C)O)ccc3c(C(=O)N[C@H]4CC5(C4)C[C@H](Oc4ncccc4C(N)=O)C5)cnn23)cn1", "note": "(stereo partly drawn) [Example 101, N-((aR)-6-((3-carbamoylpyridin-2-yl)oxy)spiro[3.3]heptan-2-yl)-6-(2-hydroxy-2-methylpropoxy)-7-(1-methyl-1H-pyrazol-4-yl)pyrazolo[1,5-a]pyridine-3-carboxamide, trifluoroacetate]", "values": [{"measurement": "IC50", "result": "5 to 50", "unit": "nM"}]}, {"compound": "CC(C)(O)Cn1nc(C(=O)N[C@H]2CC3(C2)C[C@H](Oc2ncccc2C(N)=O)C3)c2ccccc21", "note": "(stereo partly drawn) [Example 102, N-((aR)-6-((3-carbamoylpyridin-2-yl)oxy)spiro[3.3]heptan-2-yl)-1-(2-hydroxy-2-methylpropyl)-1H-indazole-3-carboamide, trifluoroacetate]", "values": [{"measurement": "IC50", "result": "5 to 50", "unit": "nM"}]}, {"compound": "NC(=O)c1cccnc1O[C@H]1CC2(C[C@H](NC(=O)c3nn(C(F)F)c4cc(F)ccc34)C2)C1", "note": "(stereo partly drawn) [Example 103, N-((aR)-6-((3-carbamoylpyridin-2-yl)oxy)piro[3.3]heptan-2-yl-1-(difluoromethyl)-6-fluoro-1H-indazole-3-carboxamide, trifluoroacetate]", "values": [{"measurement": "IC50", "setting": "[1]", "result": "< 5", "unit": "nM"}]}, {"compound": "NC(=O)c1cccnc1O[C@H]1CC2(C[C@H](NC(=O)c3cc(C(F)(F)F)cc4[nH]c(=O)[nH]c34)C2)C1", "note": "(stereo partly drawn) [Example 104, N-((aR)-6-((3-carbamoylpyridin-2-yl)oxy)spiro[3.3]heptan-2-yl)-2-oxo-6-(trifluoromethyl)-2,3-dihydro-1H-benzo[d]imidazole-4-carboxamide, trifluoroacetate]", "values": [{"measurement": "IC50", "result": "< 5", "unit": "nM"}]}, {"compound": "NC(=O)c1cccnc1OC1CC2(CC(NC(=O)c3nn(CCC(F)(F)F)c4cc(F)ccc34)C2)C1", "note": "[Example 105, N-((aR)-6-((3-carbamoylpyridin-2-yl)oxy)spiro[3.3]heptan-2-yl)-6-fluoro-1-(3,3,3-trifluoropropyl)-1H-indazole-3-carboxamide, trifluoroacetate]", "values": [{"measurement": "IC50", "setting": "[1]", "result": "< 5", "unit": "nM"}]}, {"compound": "Cn1cc(-c2ccc3c(C(=O)N[C@H]4CC5(C4)C[C@H](Oc4ncccc4C(N)=O)C5)nn(C(F)F)c3c2)cn1", "note": "(stereo partly drawn) [Example 106, N-((aR)-6-((3-carbamoylpyridin-2-yl)oxy)spiro[3.3]heptan-2-yl)-1-(difluoromethyl)-6-(1-methyl-1H-pyrazol-4-yl)-1H-indazole-3-carboxamide, trifluoroacetate]", "values": [{"measurement": "IC50", "result": "< 5", "unit": "nM"}]}, {"compound": "NC(=O)c1cccnc1O[C@H]1CC2(C[C@H](NC(=O)c3cnn4c(C5CC5)c(OCCC(F)(F)F)ccc34)C2)C1", "note": "(stereo partly drawn) [Example 107, N-((aR)-6-((3-carbamoylpyridin-2-yl)oxy)spiro[3.3]heptan-2-yl)-7-cyclopropyl-6-(3,3,3-trifluoropropoxy) pyrazolo[1,5-a]pyridine-3-carboxamide, trifluoroacetate]", "values": [{"measurement": "IC50", "result": "5 to 50", "unit": "nM"}]}]}
